Dissolved concentration data for five compounds are collected here from patent US9464306B2, “Method for producing L-amino acid” (KANEKA CORPORATION, priority 2008, dated 2016).

Data set [1] can be described thus: Dissolved concentration of the L-amino acid in the reaction mixture after completion of the reaction (HPLC). The conditions noted are these: substrate solution pH 8, 45° C.
Protocol: (§1) Here, the “dissolved concentration” refers to percentage (%) by weight of an amino acid dissolvable in the reaction mixture after completion of the reaction, and can be measured by the following method. That is, the L-amino acid is added to the reaction mixture after completion of the reaction until the L-amino acid is no longer dissolved. After that, the mixture is centrifuged, and the resulting supernatant is filtered. The amino acid present in the filtrate is quantitatively analyzed by high performance liquid chromatography, and the percentage (%) by weight of the amino acid is calculated.
The conditions of data set [2]: pH 8.
Protocol: as §1
Setting [3] is: L-amino acid dissolvable in reaction mixture after reaction of the N-succinyl-DL-amino acid with liquid cultures of E. coli HB101 (pNHK) and E. coli HB101 (pNIG).

Read-outs that look alike come from different tables or passages of the source.

As to `N[C@@H](Cc1cccc(F)c1)C(=O)O` [L-3-fluorophenylalanine], the dissolved concentration in data set [1] (setting [3]) is on record as ≤ 0.5 % by weight. `N[C@@H](Cc1ccc(Br)cc1)C(=O)O` [L-4-bromophenylalanine]: the dissolved concentration in data set [1] (setting [3]) is ≤ 0.5 % by weight. L-2-indanylglycine: in data set [2], the dissolved concentration was ≤ 0.5 % by weight. On to `C=CCCCCC[C@H](N)C(=O)O` [L-6-heptenylglycine], for which the dissolved concentration in data set [1] (setting [3]) and in data set [1] (L-amino acid dissolvable in reaction mixture after reaction with liquid culture of E. coli HB101 (pNIGHK)) was ≤ 0.5 % by weight in each case. Turning to `N[C@@H](Cc1ccccc1)C(=O)O` [L-phenylalanine, reference compound], the dissolved concentration in data set [1] (setting [3]) is 4 % by weight.
